Results from publication PMC7662321, “Andrographolide and Its 14-Aryloxy Analogues Inhibit Zika and Dengue Virus Infection” (Molecules, 2020).

What was measured:
[1] = MTT cytotoxicity assay in A549 cells; format: cell-based; conditions: human, A549 cells (human lung carcinoma), 24 h post-treatment
Method: Cytotoxicity of each compound towards cells for four selected cell lines in the range of 1 to 500 µM was evaluated using the MTT (3-(4,5-dimethylthiazol-2-yl)-2,5-diphenyltetrazolium bromide) assay at 24 h post-treatment, in parallel with control and vehicle-treated cells (0.1% dimethyl sulfoxide (DMSO)). The 50% cytotoxic concentration (CC50) values calculated from the dose-response curve (Supplementary Figures S2–S5) are shown in Table 1. Overall, a range of cytotoxicities were seen from the four compounds across the […]. The most cytotoxic combination was ZAD-1 and BHK-21 cells, while the least cytotoxic combination was andrographolide and BHK-21 cells (Table 1).
A549 cells were cultured in ninety-six-well tissue culture plates under standard conditions until the cells reached 90% confluence. The cell culture medium was removed and then cells were incubated with various concentrations of andrographolide (1–100 μM) diluted in complete medium with FBS prior to being cultured for 24 h under standard conditions before analysis using either the Vybrant MTT Cell proliferation assay kit (V13154, Invitrogen) or the alamarBlue (Thermo Fischer Scientific, Waltham, MA, USA) assay kit according to the manufacturers recommendations. Values were determined from 8 (MTT assay) or 3 (alamarBlue) independent replicates. Negative controls (only media and media with 0.1% DMSO) and positive controls (5% DMSO) were included. To determine cell number, cell cultures were trypsinized by the addition of 0.25% Trypsin/0.1% ethylelediaminetetraacetic acid (EDTA) for 3 min and then cell suspensions were diluted with 0.4% trypan blue solution. Cells were counted using a hemocytometer. Cell morphology was additionally observed under an inverted microscope after 24 h treatment with various concentrations of each compound.
Figu re S4. Cytotoxicity of ZAD -1 (A), ZA D-2 (B), ZA D-3 (C), and andro grapholide (D) to A549 (human lung carcinoma) cells. A549 cells were incubated with various concentrations of each compound for 24 hrs followed by MTT cell viability assay. The experiment was undertaken independently in 4 replicates.
DMSO at the same concentrations was used as a control. 10% ethanol, PBS, and milli- Q water were used as a positive control of cell death. The bars show mean ± SD. […]

ZIKV = ZIKV viral production in A549 cells by standard plaque assay; format: cell-based, Zika virus; conditions: for ZIKV viral production, concentration dependence: A549, MOI 5, 1 to 100 µM; for Selective Index (SI): ZIKV, CC50 and EC50 in A549 cells; for EC50: Zika virus, A549 cells, MOI 5, 24 h treatment post-infection, plaque assay, read-out: EC50 against ZIKV infection
Method: To confirm the effects of andrographolide and the andrographolide analogues on ZIKV infection, A549 cells were infected with ZIKV at MOI of 5 for 2 h, and subsequently treated with the compounds at concentrations of 10 and 25 μM or with vehicle for 24 h. The cells were harvested for determination of the percentage of infection by flow cytometry, while the supernatants were collected for determination of viral titer by standard plaque assay.
Thus, the EC50 values of ZAD-1 and andrographolide were determined against ZIKV and DENV 2. For ZIKV, A549 cells were infected with ZIKV at MOI 5 and after 2 h of infection, the cells were incubated with ZAD-1 or andrographolide at a range of concentrations (1 to 100 µM) for 24 h, after which the supernatants were collected for determination of EC50 values by standard plaque assay. Both ZAD-1 and andrographolide reduced viral production in a dose-dependent manner (Figure 4A). […] For DENV 2, HEK293T/17 cells were infected with DENV 2 at MOI 5 for 2 h and followed by incubation with ZAD-1 or andrographolide at a range of concentrations (1 to 100 µM) for 24 h. […] The EC50 value for andrographolide in DENV infection is consistent with our previous study undertaken in HepG2 and HeLa cells with the same virus.
DENV 2 (strain 16681) and ZIKV (strain SV0010/15) virus stocks were propagated in C6/36 cells previously described, and virus titers were determined by standard plaque assay as described previously using Vero cells for ZIKV and LLC-MK2 cells for DENV.
HEK293T/17 or A549 cells were cultured in six-well plates under standard conditions until the cells reached 80% confluence. HEK293T/17 cells were infected with DENV 2, while A549 cells were infected with ZIKV Thai strain at MOI 5 for 2 h at 37 °C and 5% CO2 in culture medium without FBS. Mock infection was undertaken in parallel. After the infection period, the medium was removed and replaced with complete medium (including FBS) containing 0.1% DMSO (no treatment control) or the appropriate concentration of each compound and cells were again incubated under standard conditions. At 24 h post-treatment, cells were harvested for determination of effects of compounds on percentage of infection and supernatant was collected for determination of viral productivity. All experiments were undertaken independently in triplicate with duplicate plaque assay.

HSPA1A = experiment: 2D-PAGE proteomic analysis of treated A549 cells, HSPA1A spot; format: cell-based, human; conditions: A549, 25 µM, 24 h
Method: (§1) A549 cells were therefore treated with either vehicle (0.025% DMSO), or with 25 μM of andrographolide or ZAD-1, and at 24 h post-treatment, proteins were prepared and subjected to two-dimension polyacrylamide gel electrophoresis (2D-PAGE). The experiment was undertaken independently in triplicate and representative gels are shown Figure 5, with all replicates being shown in Supplementary Figure S12. […] All of these protein spots were cut from the gels and then subjected to in-gel tryptic digestion followed by mass spectrometry. MASCOT (Matrix Science Inc., Boston, MA, USA) search of the resultant masses identified 4 proteins (Table 3), namely heat shock protein 70 kDa 1A (HSPA1A), phosphoglycerate kinase 1 (PGK1), transketolase (TKT) and nuclear transport protein of GTP-binding nuclear protein Ran (Ran).
(§2) 2D-PAGE and mass spectroscopic identification of differentially expressed spots was undertaken essentially as previously described. […] Image data were analyzed using Image Master™ 2D Platinum software version 7.0 (GenBio, Geneva, Switzerland). Each spot was evaluated on intensity, volume and area. […] After tryptic in-gel digestion, peptide masses were determined by LC-MS/MS using SYNAPT high definition MS (HDMS) (Waters Corp., Milford, MA, USA).

Ran = experiment: 2D-PAGE proteomic analysis of treated A549 cells, Ran spot; format: cell-based, human; conditions: A549, 25 µM, 24 h
Method: as §1, §2

Row | SMILES | CC50 at 24 h [1] | ZIKV viral production, concentration dependence (ZIKV; 24 h) | Selective Index (SI) (ZIKV) | EC50 (ZIKV) | Intensity Level, spot 1 HSPA1A (HSPA1A) | Intensity Level, spot 4 Ran (Ran) | inhibitory effect on ZIKV infection, comparison among compounds (ZIKV; A549, MOI 5, 25 µM, 24 h)
1 | C=C1CC[C@@H]2[C@](C)(CO)[C@H](O)CC[C@@]2(C)[C@@H]1C/C=C1/C(=O)OC[C@H]1O [Andrographolide] | 211 ± 32 µM | dose-dependent | 6.6 | 31.8 ± 3.5 µM | 2410.2 | 698.483 | –
2 | C=C1CC[C@@H]2[C@]3(C)COC(C)(C)O[C@@H]3CC[C@@]2(C)[C@@H]1C/C=C1/C(=O)OC[C@@H]1Oc1c(Cl)cc(Cl)c2ccc(C)nc12 [ZAD-1] | 273 ± 22 µM | dose-dependent | 9.8 | 27.9 ± 1.7 µM | 1279.25 | 2096.79 | greatest inhibitory effect
